The source of these data is patent US20260337153A1, “IONIZABLE AMINE LIPIDS” (Intellia Therapeutics, Inc., priority 2023, published 2026).

This assay concerns rat TTR. The experiment in a line: Serum TTR level after LNP delivery (Rat Prealbumin (Transthyretin) ELISA). Type of assay: in vivo, rat (Sprague-Dawley). As to conditions: LNP with PEG2K-DMG. As to the method:
Sprague-Dawley female rats, ranging from 6-10 weeks of age were used in each study. Animals were weighed and dosed based on individual body weight measured the morning of dosing. LNPs were dosed via the lateral tail vein in a volume of 2 mL per kilogram of animal body weight. The animals were periodically observed for adverse effects for at least 24 hours post dose.
For studies measuring in vivo editing in liver, Sprague-Dawley female rats were dosed at 0.1 mpk or 0.03 mpk, unless otherwise noted. Animals were euthanized at 6 or 7 days by carbon dioxide asphyxiation and a heart clip or by ex sanguination via cardiac puncture under isoflourane anesthesia. Blood was collected into serum separator tubes. Liver tissue was collected. Genomic DNA was isolated from the liver tissue for editing measurement by Next-Generation Sequencing (NGS).
Blood was collected and the serum was isolated as indicated. The total rat TTR serum levels were determined using a Rat Prealbumin (Transthyretin) ELISA Kit (Aviva Systems Biology, Cat. #OKIA00159). Briefly, sera were serial diluted with kit sample diluent to a final dilution of 10,000-fold. This diluted sample was then added to the ELISA plates and the assay was then carried out according to manufacturer's protocol.
In vivo editing efficiency for materials delivered with formulations including various amine lipid (or ionizable lipid) compounds in Experiments 1 through 14 as described in Tables 3 and 4 was assessed. Editing was measured using G000534 (SEQ ID NO: 5) which targets the rat TTR gene. Lipids described above were assessed for efficacy through in vivo editing experiments. LNPs were formulated at a 1:2 w/w ratio of sgRNA (SEQ ID NO: 5) and Cas9 mRNA (SEQ ID NO: 3). In Experiments 1 through 13, lipid components of the LNP are formulated in a molar ratio of 50% ionizable lipid, 38% cholesterol, 9% DSPC, and 3% PEG2K-DMG. In Experiment 14, lipid components of the LNP are formulated in a molar ratio of 50% ionizable lipid, 38% cholesterol, 9% DSPC, and 3% C13 Ether. The final LNPs used in different in vivo editing experiments were characterized to determine the encapsulation efficiency (% E), polydispersity index (PDI), and average particle size (Z-avg and number mean) according to the analytical methods provided above. The pKa values of each of the following ionizable lipids were also measured to be in the range of about 5.8 to about 7.6.
TSS was used as a vehicle-only negative control. The data are illustrated in FIGS. 1A through 14.
For orientation: In an ELISA, binding on a coated surface is turned into a signal by an enzyme label.

Take `CCCCCCCCC(CCCCCCCC)OC(=O)CCCC(=O)OCC(COC(=O)CCCC(=O)OC(CCCCCCCC)CCCCCCCC)COC(=O)OCCCN(CC)CC` [Compound 2, O,O′-(2-((((3-(diethylamino)propoxy)carbonyl)oxy)methyl)propane-1,3-diyl) di(heptadecan-9-yl) diglutarate]: for the setting “Experiment 2, 0.1 mpk”, the “% TSS (serum TTR relative to vehicle)” value was 17% and the “Serum TTR” value was determined as 238.5 µg/mL.

`CCCCCCCCC(CCCCCCCC)OC(=O)CCCCCC(=O)OCC(COC(=O)CCCCCC(=O)OC(CCCCCCCC)CCCCCCCC)COC(=O)OCCCN(CC)CC` [Compound 3, O′1,O1-(2-((((3-(diethylamino)propoxy)carbonyl)oxy)methyl)propane-1,3-diyl) 7,7′-di(heptadecan-9-yl) di(heptanedioate)]: under “Experiment 2, 0.1 mpk”, the “% TSS (serum TTR relative to vehicle)” value was 30% and the “Serum TTR” value was 414.5 µg/mL.

Turning to `CCCCC/C=C\C/C=C\CCCCCCCC(=O)OCC(COC(=O)CCCCCC(=O)OCC(CCCC)CCCCCC)COC(=O)OCCCN(CC)CC` (stereo not drawn) [Compound 4, 1-(2-butyloctyl) 7-(3-(((3-(diethylamino)propoxy)carbonyl)oxy)-2-((((9Z,12Z)-octadeca-9,12-dienoyl)oxy)methyl)propyl) heptanedioate], for the setting “Experiment 2, 0.1 mpk”, the “% TSS (serum TTR relative to vehicle)” value is 46% and the “Serum TTR” value stood at 647.4 µg/mL.

Turning to `CCCCCCC(CCCC)COC(=O)CCCCCC(=O)OCC(COC(=O)CCCCCC(=O)OCC(CCCC)CCCCCC)COC(=O)OCCCN(CC)CC` (stereo not drawn) [Compound 5, 7,7′-bis(2-butyloctyl) O′1,O1-(2-((((3-(diethylamino)propoxy)carbonyl)oxy)methyl)propane-1,3-diyl) di(heptanedioate)], for the setting “Experiment 2, 0.1 mpk”, the “% TSS (serum TTR relative to vehicle)” value turned out to be 25% and the “Serum TTR” value came to 346.5 µg/mL.

On to `CCCCC/C=C\C/C=C\CCCCCCCC(=O)OCC(CCCCCCCCC(=O)OC(CCCCCCCC)CCCCCCCCC)COC(=O)CCC(CCCCCCCC)OC(=O)NCCN(C)CC` (stereo not drawn) [Compound 24, 3-methyl-15-(9-(octadecan-9-yloxy)-9-oxononyl)-9-octyl-7,12-dioxo-8,13-dioxa-3,6-diazahexadecan-16-yl (9Z,12Z)-octadeca-9,12-dienoate], for which, for the setting “Experiment 5, 0.1 mpk”, the “% TSS (serum TTR relative to vehicle)” value is 95% and the “Serum TTR” value was found to be 1352.4 µg/mL.

Turning to `CCCCC/C=C\C/C=C\CCCCCCCC(=O)OCC(CCCCCCCCC(=O)OC(CCCCCCCC)CCCCCCCCC)COC(=O)CCC(CCCCCCCC)OC(=O)NCCN1CCCC1` (stereo not drawn) [Compound 25, 11-(octadecan-9-yloxy)-11-oxo-2-(((4-(((2-(pyrrolidin-1-yl)ethyl)carbamoyl)oxy)dodecanoyl)oxy)methyl)undecyl (9Z,12Z)-octadeca-9,12-dienoate], where the note is “Experiment 5, 0.1 mpk”, the “% TSS (serum TTR relative to vehicle)” value came to 70% and the “Serum TTR” value turned out to be 998.3 µg/mL.

Take `CCCCC/C=C\C/C=C\CCCCCCCC(=O)OCC(CCCCCCCCC(=O)OC(CCCCCCCC)CCCCCCCCC)COC(=O)CCC(CCCC)OC(=O)NCCN(C)CC` (stereo not drawn) [Compound 26, 9-butyl-3-methyl-15-(9-(octadecan-9-yloxy)-9-oxononyl)-7,12-dioxo-8,13-dioxa-3,6-diazahexadecan-16-yl (9Z,12Z)-octadeca-9,12-dienoate]: for the setting “Experiment 5, 0.1 mpk”, the “% TSS (serum TTR relative to vehicle)” value was 35% and the “Serum TTR” value was determined as 502.9 µg/mL.

In the case of `CCCCC/C=C\C/C=C\CCCCCCCC(=O)OCC(CCCCCCCCC(=O)OC(CCCCCCCC)CCCCCCCCC)COC(=O)CCC(CCCC)OC(=O)NCCN1CCCC1` (stereo not drawn) [Compound 27, 11-(octadecan-9-yloxy)-11-oxo-2-(((4-(((2-(pyrrolidin-1-yl)ethyl)carbamoyl)oxy)octanoyl)oxy)methyl)undecyl (9Z,12Z)-octadeca-9,12-dienoate], where the note is “Experiment 5, 0.1 mpk”, the “% TSS (serum TTR relative to vehicle)” value was determined as 21% and the “Serum TTR” value came to 294.3 µg/mL.

`CCCCC/C=C\C/C=C\CCCCCCCC(=O)OCC(COC(=O)CCC(OCCCCCCCC)OCCCCCCCC)COC(=O)OCCCN(CC)CC` (stereo not drawn) [Compound 53]: the “% TSS (serum TTR relative to vehicle)” value is, setting by setting: (Experiment 1, 0.1 mpk) 48%; (Experiment 2, 0.1 mpk) 24%; (Experiment 5, 0.1 mpk) 44%. Also, the “Serum TTR” value was found to be 519.9 µg/mL (Experiment 1, 0.1 mpk); 341.9 µg/mL (Experiment 2, 0.1 mpk); 624.1 µg/mL (Experiment 5, 0.1 mpk).

On to `CCCCC/C=C\C/C=C\CCCCCCCC(=O)OCC(COC(=O)CCC(OCCCCCCCC)OCCCCCCCC)COC(=O)NCCN(CC)CC` (stereo not drawn) [Compound 54], for which, under “Experiment 1, 0.1 mpk”, the “% TSS (serum TTR relative to vehicle)” value was determined as 48% and the “Serum TTR” value stood at 512.9 µg/mL.

Regarding `CCCCC/C=C\C/C=C\CCCCCCCC(=O)OCC(COC(=O)CCCC(=O)OC(CCCCCCCC)CCCCCCCC)COC(=O)OCCCN(CC)CC` (stereo not drawn) [Compound 56], where the note is “Experiment 2, 0.1 mpk”, the “% TSS (serum TTR relative to vehicle)” value is reported as 28% and the “Serum TTR” value came to 390.1 µg/mL.

Take `CCCCC/C=C\C/C=C\CCCCCCCC(=O)OCC(COC(=O)CCCCCC(=O)OC(CCCCCCCC)CCCCCCCC)COC(=O)OCCCN(CC)CC` (stereo not drawn) [Compound 57]: under “Experiment 2, 0.1 mpk”, the “% TSS (serum TTR relative to vehicle)” value amounted to 30% and the “Serum TTR” value is 412.3 µg/mL.

Turning to `CCCCC/C=C\C/C=C\CCCCCCCC(=O)OCC(COC(=O)CCCC(=O)OC(CCCCCCCC)CCCCCCCC)COC(=O)NCCN(CC)CC` (stereo not drawn) [Compound 58], the “% TSS (serum TTR relative to vehicle)” value by setting is: (Experiment 1, 0.1 mpk) 38%; (Experiment 2, 0.1 mpk) 14%. Also, the “Serum TTR” value is 406.3 µg/mL (Experiment 1, 0.1 mpk) and 198.8 µg/mL (Experiment 2, 0.1 mpk).

For the compound `CCCCC/C=C\C/C=C\CCCCCCCC(=O)OCC(COC(=O)CCCCCC(=O)OC(CCCCCCCC)CCCCCCCC)COC(=O)NCCN(CC)CC` (stereo not drawn) [Compound 59], the “% TSS (serum TTR relative to vehicle)” value runs as follows: (Experiment 1, 0.1 mpk) 50%; (Experiment 2, 0.1 mpk) 20%. The “Serum TTR” value by setting is: (Experiment 1, 0.1 mpk) 533.0 µg/mL; (Experiment 2, 0.1 mpk) 276.6 µg/mL.
